pEC50: −log10 of the molar value.
How the values were obtained:
[1] = target: T1, β3-adrenergic receptor (Homo sapiens, UniProt P13945); assay: Functional cellular cAMP (HTRF) assay, HEK293 cells expressing β3-ARs; type: cell-based
T1 construct: expressed in transfected cells; host or cells: HEK293
Procedure: The potency and maximal effect of vibegron and mirabegron for β3-adrenergic receptors and the selectivity for each […] receptor were determined. Functional cellular assays for vibegron and mirabegron activity were performed using Chinese hamster ovary (CHO) cells expressing β1- or β2-ARs and human embryonic kidney (HEK) 293 cells expressing β3-ARs. Cells were incubated with vibegron, mirabegron, or the appropriate control (isoproterenol for β1 and β3, procaterol for β2). Responses were quantified using homogeneous time-resolved fluorescence of cyclic adenosine monophosphate. Half-maximal effective concentration (EC50) and maximum response (Emax) values were determined by nonlinear least-squares regression analysis.

[2] = Plasma titer after 4 weeks of treatment in post-MI mice; type: in vivo, mouse; conditions: after 4 weeks of treatment (week 6), FIG. 6
Description: Myocardial infarction was induced in 10-12 week C57B/6 wild-type mice and after 2 weeks echo cardiograms were used to assess the MI severity in each mouse. Mice were randomized for treatment based on similarity and severity of the induced infarct. The mice were started with either vibegron or vehicle (1-3 doses) administered by continuous infusion using 2 week minipumps (Azlet Corp.) that were filled with the appropriate dose and implanted subcutaneously on the back of each animal in the region of the scapula. The minipumps were replaced with new minipumps in the same location at the 2 week time point and dosed for 4 weeks in total. Cardiac function was assessed by echocardiography (Echo) at 0, 2, 4, and 6 weeks. Some mice were subjected to terminal catheterization to measure hemodynamic pressures and adrenergic responsiveness. At the end of the 4 week treatment period (i.e., 6 weeks after MI was induced), cardiac function was measured, mice were sacrificed for histology of the heart, and terminal blood was collected to confirm the serum concentration of vibegron.
• 1. Day 0 (after 1-2 weeks acclimation)—pre-surgery Echo • 2. Perform LAD Ligation (MI) or Sham procedure • 3. Day 14—Echo and randomly assign groups • 4. Day 14—begin administration of vehicle and drug for 4 weeks • 5. Day 28—Echo (operator blinded to groups)—change pumps for another 2 week dosing • 6. […]

T1 sequence (P13945 whole entry): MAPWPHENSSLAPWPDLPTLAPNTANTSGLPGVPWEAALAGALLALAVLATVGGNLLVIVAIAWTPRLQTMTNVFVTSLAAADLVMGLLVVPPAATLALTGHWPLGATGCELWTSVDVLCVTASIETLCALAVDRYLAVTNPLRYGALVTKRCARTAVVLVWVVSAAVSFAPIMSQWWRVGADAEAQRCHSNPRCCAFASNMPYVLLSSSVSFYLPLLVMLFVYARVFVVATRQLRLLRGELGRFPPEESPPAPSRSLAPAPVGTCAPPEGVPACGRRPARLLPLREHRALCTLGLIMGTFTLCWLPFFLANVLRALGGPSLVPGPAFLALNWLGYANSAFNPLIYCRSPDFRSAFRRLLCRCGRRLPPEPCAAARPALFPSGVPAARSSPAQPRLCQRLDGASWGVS

O=C(Nc1ccc(C[C@@H]2CC[C@H]([C@H](O)c3ccccc3)N2)cc1)[C@@H]1CCc2nccc(=O)n21 [Vibegron, (6S)—N-[4-[[(2S,5R)-5-[(R)-hydroxy(phenyl)methyl]pyrrolidin-2-yl]methyl]phenyl]-4-oxo-7,8-dihydro-6H-pyrrolo[1,2-a]pyrimidine-6-carboxamide]
β3-adrenergic activity relative to isoproterenol (% Activity) ([1]; 10 μM, HEK293 cells): 104%
Emax ([1]; HEK293, estimated by nonlinear least-squares regression, read-out: Emax (maximum response) at the β3-AR): 99.2%
pEC50 ([1]; HEK293 cells expressing β3-ARs, cAMP, read-out: Mean (SEM) EC50 at the β3-AR): 8.67
Emax (maximum response) at the β3-AR ([1]; estimated by nonlinear least-squares regression): ~100%
Potency at activating β3-ARs relative to mirabegron ([1]; ratio of mean EC50 values): approximately 5 times
Vibegron plasma titer [2]: consistent with the dosing

Source: patent US20260224577A1, “METHODS OF TREATING HEART FAILURE WITH VIBEGRON” (SUMITOMO PHARMA CO., LTD., priority 2021, published 2026)
